The values below come from patent publication US6689773B2, “Uracil substituted phenyl sulfamoyl carboxamides” (BASF Aktiengesellschaft, priority 2000, dated 2004).

One assay deals with potato plants. As to the kind of experiment: Field trials of preharvest desiccant activity (Example 151). The format is in vivo, Potatoes. As to conditions: EC formulation 120 grams a.i./liter applied to foliage a few weeks before harvest. The protocol: Field evaluations of preharvest desiccant activity were performed at several different locations using compound Ia.86. In each experiment treatments was replicated three times in a randomized complete block experimental design. Potatoes were grown using good agronomic practices of each area. Treatments were applied a few weeks before planned potato harvest. The test compound was formulated as an emulsifiable concentrate (EC) formulation with 120 grams a.i./liter. The formulation was diluted with water, spray adjuvants were added, and the treatment solution was applied to the foliage of potatoes in from 187 to 600 l/ha of total spray volume. Unless indicated otherwise, the treatments also contained […] of methylated seed oil adjuvant (Hasten or SUN-IT II. In the case of split applications, the second application was made about 1 week after the initial application. At various intervals after treatment, desiccation of stems and leaves was evaluated separately, on a visual % desiccation scale. In each test the test compound was compared to appropriate commercial standards at the normal rate for each standard for the area.

Assay [1] relates to Polygonum persicaria (POLPE), redshank; ladysthumb. As to the kind of experiment: Greenhouse post-emergence herbicidal action (Example 149). As to conditions: 15.6 or 7.8 g/ha of a.i. The format is in vivo. The protocol:
(§1) The culture containers used were plastic flowerpots containing loamy sand with approximately 3.0% of humus as substrate. The seeds of the test plants were sown separately for each species.
(§2) For the post-emergence treatment, the test plants were grown to a plant height of from 3 to 15 cm, depending on the plant habit, and only then treated with the active ingredients which had been suspended or emulsified in water. To this end, the test plants were either sown directly and grown in the same containers, or they were first grown separately as seedlings and transplanted into the test containers a few days prior to treatment. The rate of application for the post-emergence treatment was 15.6 or 7.8 g/ha active ingredient.
(§3) Depending on the species, the plants were kept at from 10-25° C. and 20-35° C., respectively. The test period extended over 2 to 4 weeks. During this time, the plants were tended, and their response to the individual treatments was evaluated.
(§4) Evaluation was carried out using a scale of from 0 to 100. 100 means no emergence of the plants, or complete destruction of at least the aerial parts, and 0 means no damage or normal course of growth.
(§5) The plants used in the greenhouse experiments belonged to the following species: […]

Assay [2] deals with Pharbitis purpurea (PHBPU), common or tall morningglory. The assay is described as above. Format: in vivo. As to conditions: 15.6 or 7.8 g/ha of a.i. The method, then:
as §1, §2, §3, §4, §5

The test system of assay [3] is Amaranthus retroflexus (AMARE), Redroot pigweed. Described as above. Format: in vivo. As to conditions: 15.6 or 7.8 g/ha of a.i. The protocol: as §1, §2, §3, §4, §5

Turning to `CC(C)N(C)S(=O)(=O)NC(=O)c1cc(-n2c(=O)cc(C(F)(F)F)n(C)c2=O)c(F)cc1Cl` [Ia.86], in the assay with potato plants, the “desiccation of the leaves and stems of potato plants” value is given as “very effective”.
`CC(C)N(C)S(=O)(=O)NC(=O)c1cc(-n2c(=O)n(C)c(=S)n(C)c2=O)c(F)cc1Cl` [Ij.86, N′-[2-Chloro-5-(3,5-dimethyl-2,6-dioxo-4-thioxo-1,3,5-triazinan-1-yl)-4-fluorobenzoyl]-N-isopropyl-N-methylsulfamide]: the herbicidal action entry in assay [1], in assay [2] and in assay [3] was “very good herbicial action” throughout.
